The values that follow come from ChEMBL document CHEMBL1155229, “Physical binding pocket induction for affinity prediction” (J Med Chem, 2009).

The first experiment deals with T1, 5-hydroxytryptamine receptor 1A (Homo sapiens, UniProt P08908).
T1 sequence (P08908 whole entry): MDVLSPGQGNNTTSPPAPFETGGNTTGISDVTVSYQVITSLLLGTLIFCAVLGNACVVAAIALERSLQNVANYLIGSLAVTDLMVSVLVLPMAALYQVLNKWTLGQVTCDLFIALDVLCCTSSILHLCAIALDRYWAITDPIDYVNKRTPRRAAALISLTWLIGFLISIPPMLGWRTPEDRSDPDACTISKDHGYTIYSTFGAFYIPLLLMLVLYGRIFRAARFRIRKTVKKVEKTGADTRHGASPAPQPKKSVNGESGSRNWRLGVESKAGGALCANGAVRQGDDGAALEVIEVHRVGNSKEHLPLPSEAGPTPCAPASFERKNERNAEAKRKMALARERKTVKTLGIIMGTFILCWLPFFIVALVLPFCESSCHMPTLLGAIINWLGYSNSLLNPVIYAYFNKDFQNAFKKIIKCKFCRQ
Put plainly: Binding affinity to 5HT1A receptor. Conditions: read-out: Kd.
In the case of `Fc1ccc([C@@H]2CCNC[C@H]2COc2ccc3c(c2)OCO3)cc1` [PAROXETINE], the Kd came out at 30 µM.

Staying with this experiment, now noted: read-out: pKd (converted).
As to `CCCN(CCC)[C@H]1CCc2c(F)ccc(O)c2C1`, the Kd is 0.0251 µM.
The same measure, in the same setting: for `C=CCN1CC[C@H]2c3ccccc3CC[C@H]21` the value was 0.001 µM.
Still for that read-out and setting: as for `COc1cccc2c1C[C@H]1CCN(CC3CC3)[C@@H]1C2`, the figure is 0.0316 µM; as for `CCCN1CC[C@H]2c3c(cccc3OC)CC[C@H]21`, 0.0002 µM; as for `C=CCN1C[C@H]2c3c(O)cccc3CC[C@H]21`, 0.000316 µM.
Still for that read-out and setting: as for `COc1ccccc1N1CCN(C[C@@H](C(=O)NC(C)(C)C)c2ccccc2)CC1`, the figure is 0.00126 µM.
As for `COc1cccc2c1C[C@@H]1CCN(CC3CC3)[C@@H]1C2`, the Kd was 0.794 µM.
On the same count and under the same terms, for `CCCN1CC[C@@H]2c3c(cccc3OC)CC[C@@H]21` the value was 0.2 µM.
The same measure, in the same setting: as for `CN(C)CCc1c[nH]c2ccc(O)cc12` [BUFOTENINE], the figure is 0.00316 µM.
Still for that read-out and setting: as for `Clc1cccc(N2CCNCC2)c1` [CHLOROPHENYLPIPERAZINE], the figure is 0.1 µM; as for `FC(F)(F)c1cccc(C2CNCCO2)c1` (stereo not given) [FLUMEXADOL], 0.251 µM.
Turning to `O=C1c2ccccc2S(=O)(=O)N1CCCCN1CCN(c2ncccn2)CC1` [IPSAPIRONE], the Kd was 0.00398 µM.
On the same count and under the same terms, as for `CN1C[C@@H](NS(=O)(=O)N(C)C)C[C@@H]2c3cccc4c3c(cn4C)C[C@H]21` [MESULERGINE], the figure is 0.158 µM; as for `Clc1cncc(N2CCNCC2)n1` [MK-212], 0.794 µM.
Same read-out and setting: for `O=C(NCCN1CCOCC1)c1ccc(Cl)cc1` [MOCLOBEMIDE] the value was 5.01 µM; for `CCc1nn(CCCN2CCN(c3cccc(Cl)c3)CC2)c(=O)n1CCOc1ccccc1` [NEFAZODONE], 0.158 µM.
Consider `Fc1ccc([C@@H]2CCNC[C@H]2COc2ccc3c(c2)OCO3)cc1` [PAROXETINE], for which the Kd was 31.6 µM.
Still for that read-out and setting: for `C[C@H]1[C@H](c2ccccc2)OCCN1C` [PHENDIMETRAZINE] the value was 12.6 µM; for `Cc1nc2ccccn2c(=O)c1CCN1CCC(C(=O)c2ccc(F)cc2)CC1` [PIRENPERONE], 2.51 µM.
